Data as given in patent US20070037833A1, “Compositions and methods for inhibiting neurodegeneration” (priority 2005, published 2007).
Where “and” joins values, the source holds several entries; their conditions need not be identical. Identical values can stand only once. Entries after “also recorded” stand apart in the source; their conditions may differ.

Tests used:
[1] = system: motor neurons in embryonic rat spinal cord cultures; assay: Excitotoxicity assay (100 μM kainic acid) in mixed spinal cord cultures; format: cell-based; settings: for excitotoxic motor neuron death: drug for 4 days (added 4 and 2 days) prior to 100 μM kainic acid 1 h, SMI-32(+) motor neurons counted 24 h later; for % of motor neurons killed (cell death) after excitotoxic insult: 4 day pre-treatment prior to 100 μM kainic acid
Method: Unless otherwise specified, BDNF was added to all cultures.
Many previous in vitro investigations have identified motor neurons in mixed spinal cord cell culture by immunostaining for non-phosphorylated neurofilaments (or peripherin) and restricting analysis to cells with a soma diameter of 25 μm or greater (Carriedo et al., 2000; Hu and Kalb, 2003). We wanted to confirm the validity of this approach using an independent method for determining whether a given cell is a motor neuron. To specifically identify motor neurons in our cultures we purified these cells by metrizamide gradient and immunopanning techniques (Henderson et al., 1993; Fryer et al., 1999), live-labeled them with CM-DiI, and added these fluorescently-tagged, bona fide motor neurons to mixed cell cultures at the time of initial plating. All CM-DiI labeled cells stained for motor neurons markers such as non-phosphorylated neurofilament H (using antibody, SMI-32), peripherin, choline acetyl transferase (ChAT) and islet ½ (FIG. 1, panel a.). We then subjected spinal cord cultures to an excitotoxic insult and determined motor neuron survival using multiple methods for identifying motor neurons. […] Since all SMI-32 (+) cells with cell body diameter of 25 μm or greater were CM-DiI (+) and all CM-DiI (+) cells were SMI-32 (+), for the remainder of the studies herein, we could confidently study motor neuron death in vitro by counting SMI-32 (+) cells with a cell body diameter of 25 μm or greater.

[2] = system: motor neurons expressing G59S p150^glued; assay: Motor neuron death from HSV-expressed mutant p150glued in spinal cord cultures; format: cell-based, rat; settings: 6 days post-infection; treatment daily or every other day
From the text: (§1) Various cDNAs were cloned into the PrpUC amplicon plasmid and were used to generate recombinant HSV as previously described (Neve et al., 1997). The titer of viruses used in these studies were routinely 3-5×10^7 plaque-forming units/ml. The cDNA for wild type/mutant SOD and wild type/mutant p150^glued were gifts of D. Borchelt and E. Holzbaur, respectively. The K295R mutant version of chick src was a gift of J. Brugge.
(§2) Mutations in superoxide dismutase (SOD) or the p150^glued subunit of dynactin are known to account for a familial form of ALS in a subpopulation of individuals (Rosen, 1993; Puls et al., 2003; Bruijn et al., 2004). We inquired whether expression the mutant forms of SOD or p150^glued caused motor neuron death in vitro and if Trk antagonism was neuroprotective. Recombinant herpes simplex viruses (HSVs) were generated that expressed wild type or mutant form of SOD (G85R) and wild type or mutant p150^glued (G59S). […] Spinal cord cultures were infected with virus at 14 DIV and the number of motor neurons was determined 2, 4, 6 or 8 days later (FIG. 4, panel a.).
(§3) We next determined if KW6002 could protect motor neurons from the toxic effects of mutant proteins. Spinal cord cultures were infected with viruses expressing wild type or mutant versions of SOD or p150^glued at 14 DIV, then treated with drug or vehicle for 4 days (FIG. 4, panel b.). […]

[3] = system: motor neurons expressing G85R SOD; assay: Motor neuron death from HSV-expressed mutant SOD in spinal cord cultures; format: cell-based, rat; settings: 6 days post-infection; treatment daily or every other day
From the text: as §1, §2, §3

[4] = system: motor neurons in embryonic rat spinal cord cultures; settings: Mojsilovic-Petrovic et al., 2005; cited from earlier work
[5] = system: src-family kinases (SFK); assay: Immunoblot for active SFKs (clone 28 antibody) in spinal cord cultures; format: cell-based, rat; settings: 24 hours treatment; listed as MRS 1754
Method: (§4) Cells were lysed in 1% NP-40 lysis buffers containing protease inhibitors, subjected to SDS-PAGE and immunoblotted as previously described (Fryer et al., 1999; Fryer et al., 2000). For immunoprecipitation, lysates from 60 mm dishes were pre-cleared by incubation with protein A beads (Santa Cruz), incubated with primary antibody (4 μg/ml)×2 hours then 50 μL of beads added and incubated overnight with gentle agitation at 4° C. Beads were pelleted, washed 5× with 10 mM Tris pH 7.4+0.5 mM EGTA+0.5 mM EDTA+0.1% NP40 before elution in 1× Laemelli sample buffer. Antibody sources: BD Transduction Labs—TrkB and MAP Kinase used at 1:500, Cell Signaling—Akt 1:1000; phosphoTrk (tyr490) 1:1000; phospho p42/44 MAP Kinase (thr 202/tyr204) 1:1000; phosphoAkt (ser473) 1:500; IGFI antibody (tyr 1131) 1:500. Upstate—adenosine A2a 1:1000. Sigma—actin 1:200. Biosource—active src (clone 28) 1:200.
The precise mechanism by which G-protein coupled receptors trans-activate receptor tyrosine kinases is complex and to some extent receptor-subtype specific (Luttrell et al., 1999; Downward, 2003; Piiper and Zeuzem, 2004; Waters et al., 2004). […] If this pathway was operative in spinal cord neurons, then antagonism of adenosine A2a receptors might lead to reduced src activation and antagonism of SFKs might be neuro-protective. Src is negatively regulated by phosphorylation of tyrosine 529 (refers to human src sequence) and an antibody that recognizes a de-phospho epitope in this region (“clone 28”) is a reliable measure of active src and SFKs (Kawakatsu et al., 1996). We began by asking for adenosine A2a receptors and active SFKs are present in the same cells and if so, their subcellular distribution. Pure motor neurons, grown in the presence of BDNF were immunostained with a rabbit anti-adenosine A2a receptor and the clone 28 antibody. One hundred percent of motor neurons expressed both antigens and on dendrites, the immunoreactivity formed discrete fine puncta (FIG. 5a). Many, but not all, puncta were stained with both antibodies. […]

[6] = system: Trk; assay: Immunoblot for phosphoTrk in spinal cord cultures; format: cell-based, rat; settings: 24 hours treatment
Method: as §4
(§5) We next asked about the effect of the adenosine A2 receptor antagonism on Trk signaling. Cultures of spinal cord cells (grown in the presence of a cocktail of trophic factors including 10 ng/ml BDNF) received KW6002 (1 μM), MRS1754 (50 nM) or vehicle (DMSO 0.1%) and 24 hrs. later, lysates were prepared for immunoblots for Trk and the MAP kinase downstream signaling module (FIG. 2, panel a). Immunoblots for phosphoTrk and phosphoMAPK were employed to monitor the state of activation of these proteins.
(§6) We followed up these observations by determining the effect of enprofylline on Trk signaling and determined the extent to which the resultant biochemical changes mimic the effects of direct pharmacological Trk antagonism with CEP4416. […] The effect of drug treatment on AKT was particularly marked. […] To determine the specificity of these agents, we examined their effect on Insulin-like growth factor 1 (IGF1) signaling through the IGF receptor tyrosine kinase (IGFR). […] It is unlikely that phosphodiesterase activity of enprofylline can explain these observations as increased cAMP levels enhance, not suppress, TrkB activation (Boulanger and Poo, 1999; Ji et al., 2005).

[7] = system: MAP kinase; assay: Immunoblot for phosphoMAPK in spinal cord cultures; format: cell-based, rat; settings: 24 hours treatment
Method: as §4, §5, §6

[8] = system: IGF receptor tyrosine kinase (IGFR); assay: Immunoblot for phospho-IGFR in spinal cord cultures; format: cell-based, rat; settings: 5 nM, 30 min
Method: as §4, §6

C[C@]12O[C@H](C[C@]1(O)CO)n1c3ccccc3c3c4c(c5c6ccccc6n2c5c31)CNC4=O [CEP701]
excitotoxic motor neuron death [1]: No motor neuron death occurred
excitotoxic motor neuron death ([1]; listed as CEP-701): completely blocked the loss of SMI(+) neurons

N#Cc1cc2[nH]c(=O)c(=O)[nH]c2cc1[N+](=O)[O-] [CNQX]
motor neuron survival / toxicity of G59S p150glued [2]: significantly greater number of motor neurons; also recorded: completely prevented the toxicity of mutant protein expression
motor neuron survival / toxicity of G85R SOD [3]: significantly greater number of motor neurons; also recorded: completely prevented the toxicity of mutant protein expression

CCCn1c(=O)c2[nH]c(C3CCCC3)nc2n(CCC)c1=O [DPCPX]
excitotoxic cell death in pre-treated cultures (previous observations) [4]: death occurred

O=S(=O)(NCCNC/C=C/c1ccc(Br)cc1)c1cccc2cnccc12 [H89]
% of motor neurons killed (cell death) after excitotoxic insult [1]: 40% and 53±5%

CCCn1c(=O)c2[nH]c(-c3ccc(OCC(=O)Nc4ccc(C#N)cc4)cc3)nc2n(CCC)c1=O [MRS1754]
abundance of active SFKs [5]: only reduced in cultures treated with KW6002
% of motor neurons killed (cell death) after excitotoxic insult [1]: 50%
% of motor neurons killed (cell death) after excitotoxic insult ([1]; listed as MRS 1754): ~40%
abundance of phosphoTrk [6]: indistinguishable from the vehicle control
abundance of phosphoMAPK [7]: indistinguishable from the vehicle control

Cc1ccc(-c2nn(C(C)(C)C)c3ncnc(N)c23)cc1 [PP1]
% motor neuron survival after excitotoxic challenge ([1]; SFK inhibition before excitotoxicity assay): 100±2%
number of motor neurons surviving excitotoxic challenge ([1]; SFK inhibition, versus LacZ or vehicle): statistically significant greater number of motor neurons
abundance of phosphoTrk [6]: reduction in the abundance of phosphorylated Trk; also recorded: reduction in the abundance of phosphoTrk

Nc1ncnc2c1ncn2C1CCCO1 (stereo not drawn) [SQ 22536]
% of motor neurons killed (cell death) after excitotoxic insult [1]: 40% and 42±4%
basal survival of motor neurons ([1]; 4 day pre-treatment, without excitotoxic challenge): did not adversely affect the basal survival of motor neurons

Nc1nc(NCCc2ccc(O)cc2)nc2nc(-c3ccco3)nn12 [ZM241385]
excitotoxic cell death in pre-treated cultures (previous observations) [4]: no excitotoxic cell death

CCCC(=O)Nc1ncnc2c1ncn2[C@@H]1O[C@@H]2COP(=O)(O)O[C@H]2[C@H]1OC(=O)CCC [db-cAMP, dibutryl-cAMP]
% of motor neurons killed (cell death) after excitotoxic insult [1]: −2±3%
excitotoxic motor neuron death [1]: No excitotoxic cell death occured

C=C(C)[C@H]1CN[C@H](C(=O)O)[C@H]1CC(=O)O [kainic acid]
loss of motor neurons ([1]; 100 μM for 1 hour, counted 24 hours later, 14-16 DIV): ~45%

IGF1: Insulin-like growth factor 1
IGFR phosphorylation upon acute administration [8]: robust induction of phospho-IGFR; also recorded: strong increase in IGFR phosphorylation
